Results reported in patent US5321030A, “Creatine analogs having antiviral activity” (priority 1991, dated 1994).
Values after ≈ are worked out from the molar mass of the structure shown.

Tests used:
[1] = system: Influenza B/Hong Kong/5/72; assay: CPE-reduction assay, Influenza B in MDCK cells; format: cell-based; details: 62.5 μg/ml-4 mg/ml; only at the highest concentration
Experimental: Cyclocreatine was prepared at a concentration of 100 mg/ml in MEM, without serum, 0.18% NaHCO3, 50 μg/ml gentamicin. Further dilutions (2-fold dilution scheme) were made in MEM without serum.
Cells (0.2 ml/well) were seeded in 96-well flat bottom tissue culture plates, (Corning Glass Works, Corning, N.Y.). The cells were incubated overnight in order to establish cell monolayers. Growth medium was decanted from the 96-well plates and various dilutions of compound were added to wells of the plate (4 wells/dilution; 0.1 ml/well). Medium alone was added to uninfected cell and virus (no drug) control wells (0.1 ml/well). Virus, diluted in test medium (0.1 ml final volume), was added to all compound test wells of the plate (3 wells/dilution) and to 9 virus control wells. Test medium (0.1 ml/well) without virus was added to all toxicity control wells (1 well/dilution for each compound tested) and to 3 uninfected cell control wells.
The plates were incubated at 37° C. until virus control wells (no drug) had CPE readings near 100% CPE. Cells were then examined microscopically for virus CPE and graded on a scale of 0-4, with 0 being no CPE and 4 being 100% CPE. The cells in toxicity control wells were observed microscopically and graded for morphological changes due to cytotoxicity. […]

[2] = Cytotoxicity in plaque reduction assay, CV-1 cells; format: cell-based, African Green Monkey; details: monkey, Table 9B, read-out: CD50 (the source's name)
[3] = Phosphorylation of cyclocreatine in cultured cells

**Q.** For `NC1=NCCN1CC(=O)O` [cyclocreatine, 1-carboxymethyl-2-iminoimidazolidine], which “effect on CPE” value [1] is on record?
**A.** The value was “slight inhibitory effect”.

**Q.** What about the CC50 [2] of the same compound?
**A.** The CC50 was 5790 µg/mL (≈ 40.4 mM).

**Q.** What about the metabolised ([3]; a2058 cells) of the same compound?
**A.** Its metabolised is 13%.

**Q.** And the metabolised ([3]; du 145 cells)?
**A.** Its metabolised is 76%.

**Q.** And the metabolised ([3]; me180 cells)?
**A.** Its metabolised is 85%.

**Q.** What about the metabolised ([3]; vero cells) of the same compound?
**A.** The metabolised was 68%.
